This note sets out measurements from patent US8129409B2, “Piperidine derivatives and cosmetic compositions thereof” (L'Oreal, priority 2004, dated 2012).

Molecules are shown by their SMILES.

Assay [1] is described as follows: anti-wrinkle activity in vivo. The settings on record: no details given.
The test system of assay [2] is human striated muscle cells innervated with explants of rat embryonic rachidian ganglia and spinal cord. The assay can be described thus: nerve/muscle coculture model, muscle fibre contractions. Format: cell-based. Here is the method:
The compound of Example 1 was tested on a model of nerve/muscle coculture, which makes it possible to recreate a motor arc by innervating human striated muscle cells with explants of rat embryonic rachidian ganglia and spinal cord.
Human muscle cells, obtained from samples of striated muscle from healthy donors, are inoculated into wells of cross section 1.8 cm^2 (24-well culture dishes). After culturing for ten days, these cells form a monolayer and fuse. At this stage, explants of embryonic spinal cord from a 13 day-old rat, containing the rachidian ganglia, are placed on the culture.
The growth of the neurites is visible beyond the spinal cord explant after one day of culture. The first contractions of the muscle fibres are observed after five to six days of coculture, and after three weeks all the muscle fibres in the region of the explants contract.
The cocultures are used after 21 days, when the muscle fibres are striated and contain mature differentiated neuromuscular junctions.
A muscle fibre showing regular contractions (at least 60 contractions per minute) is then selected from three different culture wells and the number of contractions is counted over 30 seconds. The test compound, diluted in DMSO, is then incubated for 60 seconds in these wells, at a concentration of 10^−5 M. At the end of incubation, the number of contractions is again counted over 30 seconds. […]

Take `CN1C(=O)CN=C(c2ccccc2)c2cc(Cl)ccc21` [diazepam]: in assay [1], the “anti-wrinkle activity in vivo” value is “demonstrated in vivo”. For the same molecule, in assay [2] (as demonstrated by the Applicant, no concentration given), the “effect on muscle fibre contractions in the nerve/muscle coculture model” value was “inhibited muscle fibre contractions”.

Regarding `c1ccc(CCCC2CCN(CCCc3ccccc3)CC2)cc1` [Example 1, 1,4-bis(3-phenylpropyl)piperidine], the “contractions of the fibre as % of its contractions before addition of the compound” value in assay [2] (10^−5 M, diluted in DMSO, 60 seconds incubation (one minute after adding), contractions counted over 30 seconds, triplicate) worked out at 55%.
